ChEMBL document CHEMBL2074188, “Effects of the flavonoids biochanin A, morin, phloretin, and silymarin on P-glycoprotein-mediated transport” (J Pharmacol Exp Ther, 2003)

Experiments:
Assay type in all cases: functional, cell-based
[1] = molecular target: T1, ATP-dependent translocase ABCB1 (Homo sapiens, UniProt P08183); assay: TP_TRANSPORTER: cell accumulation of daunomycin in MDA435/LCC6MDR1 cells
[2] = molecular target: T1, ATP-dependent translocase ABCB1; assay: TP_TRANSPORTER: increase in Daunomycin intracellular accumulation (Daunomycin: 0.05 uM, BiochaninA: 50 uM) in MDA435/[…] cell
[3] = molecular target: T1, ATP-dependent translocase ABCB1; assay: TP_TRANSPORTER: increase in Daunomycin intracellular accumulation (Daunomycin: 0.05 uM, Morin: 50 uM) in MDA435/[…] cells
[4] = molecular target: T1, ATP-dependent translocase ABCB1; assay: TP_TRANSPORTER: increase in Daunomycin intracellular accumulation (Daunomycin: 0.05 uM, Silymarin: 50 uM) in MDA435/LCC6 MDR1 cells; conditions: mda-mb-435/lcc6 mdr1, 50 µM

T1 sequence (P08183 whole entry): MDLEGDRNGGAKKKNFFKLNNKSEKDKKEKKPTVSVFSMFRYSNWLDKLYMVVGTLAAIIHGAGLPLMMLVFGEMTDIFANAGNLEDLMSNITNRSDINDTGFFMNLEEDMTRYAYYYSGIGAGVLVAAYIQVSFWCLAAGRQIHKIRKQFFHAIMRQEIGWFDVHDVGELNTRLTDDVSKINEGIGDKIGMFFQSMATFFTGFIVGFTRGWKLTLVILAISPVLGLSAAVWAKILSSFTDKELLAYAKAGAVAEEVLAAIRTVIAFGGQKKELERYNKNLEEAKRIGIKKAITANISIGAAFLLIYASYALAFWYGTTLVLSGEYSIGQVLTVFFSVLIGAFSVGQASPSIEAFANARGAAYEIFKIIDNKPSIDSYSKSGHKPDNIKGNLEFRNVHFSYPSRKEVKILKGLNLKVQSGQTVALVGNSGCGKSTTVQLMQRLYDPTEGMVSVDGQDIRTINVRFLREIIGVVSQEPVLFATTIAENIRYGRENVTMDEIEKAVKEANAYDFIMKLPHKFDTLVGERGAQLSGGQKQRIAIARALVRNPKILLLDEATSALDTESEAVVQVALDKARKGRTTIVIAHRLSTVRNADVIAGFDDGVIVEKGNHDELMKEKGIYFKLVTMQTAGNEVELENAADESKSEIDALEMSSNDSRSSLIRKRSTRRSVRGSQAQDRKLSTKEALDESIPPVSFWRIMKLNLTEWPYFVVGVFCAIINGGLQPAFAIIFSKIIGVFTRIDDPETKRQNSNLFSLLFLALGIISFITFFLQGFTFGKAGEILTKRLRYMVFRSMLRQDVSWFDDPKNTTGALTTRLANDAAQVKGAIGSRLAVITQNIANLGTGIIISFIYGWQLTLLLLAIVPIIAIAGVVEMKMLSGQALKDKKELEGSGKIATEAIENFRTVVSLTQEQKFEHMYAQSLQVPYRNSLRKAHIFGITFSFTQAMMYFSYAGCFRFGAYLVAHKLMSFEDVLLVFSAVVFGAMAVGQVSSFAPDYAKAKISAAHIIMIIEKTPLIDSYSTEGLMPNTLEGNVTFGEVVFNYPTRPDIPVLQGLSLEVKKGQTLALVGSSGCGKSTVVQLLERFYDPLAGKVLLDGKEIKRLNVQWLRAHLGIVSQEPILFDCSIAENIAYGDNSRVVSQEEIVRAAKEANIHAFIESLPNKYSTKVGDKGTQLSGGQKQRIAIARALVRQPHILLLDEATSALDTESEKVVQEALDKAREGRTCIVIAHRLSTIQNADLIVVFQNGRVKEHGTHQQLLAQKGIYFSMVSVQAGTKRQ

Activity [1]	Compound	Activity [2]	Activity [3]	Activity [4]
inhibitor [+]	COc1ccc(-c2coc3cc(O)cc(O)c3c2=O)cc1 [BIOCHANIN]	inhibitor [(at a rough estimate) 645 % of control]	–	–
inhibitor [+]	SILYMARIN	–	–	inhibitor [(at a rough estimate) 420 % of control]

The remaining lines, values behind:

Compound	Activity [1]	Activity [2]	Activity [3]	Activity [4]
O=c1c(O)c(-c2ccc(O)cc2O)oc2cc(O)cc(O)c12 [MORIN]	inhibitor [+]	–	inhibitor [(at a rough estimate) 585 % of control]	–
O=C(CCc1ccc(O)cc1)c1c(O)cc(O)cc1O [PHLORETIN]	inhibitor [+]	–	–	–
COc1ccc(CCN(C)CCCC(C#N)(c2ccc(OC)c(OC)c2)C(C)C)cc1OC (stereo not drawn) [VERAPAMIL]	inhibitor [+]	–	–	–
